# Measured values taken from patent USRE37525E1, “Method for treating infectious respiratory diseases” (priority 1991, dated 2002).
# Several values for one entry are separate records, joined by “and”; a condition that tells them apart may be missing. Identical values can stand only once. Entries after “also recorded” stand apart in the source; their conditions may differ. Like-named read-outs stand apart in the source and are kept apart here.
# Key:
# [1] = test system: parainfluenza virus type 3 (PIV3); type: in vivo, cotton rats (Sigmodon hispidus)
# Text: (§1) Inbred cotton rats (Sigmodon hispidus) were obtained from the colony of Virion Systems, Inc. Adult animals, free from specific rodent pathogens, were used. Animals were housed in large polycarbonate rat cages with a bedding of hardwood chips, and fed a diet of standard rat chow and water. Adult animals ranging from 1 to 8 months of age were used. No age-related differences in response to infection or treatment were seen.
# (§2) Hydrocortisone acetate was selected as the prototypical corticosteroid for the anti-inflammatory studies. Cotton rats were infected (Day 0) by intranasal instillation of PIV3 (10^6 pfu/animal) or Ad-5 (10^9 pfu/animal). Animals were anesthetized with methoxyflurane, and the inoculating virus was delivered in a volume of 0.1 ml/100 gm body weight of the animal. On Day 3, animals were anesthetized with methoxyflurane, and hydrocortisone acetate (50 mg/ml) was instilled intranasally in a volume of 0.1 ml/100 gm body weight. The same treatment with hydrocortisone acetate was repeated once per day on Days 4 and 5. For purposes of comparison, control animals were infected concurrently on Day 0, but received no treatment on Days 3, 4, or 5. On Day 6, all animals were euthanized by carbon dioxide intoxication.
# These included dexamethasone acetate (8 mg/ml) and triamcinolone acetonide (40 mg/ml). Of course, other corticosteroids or anti-inflammatory agents known to one of ordinary skill in the art could also be used.
# (§3) Lungs were removed from the thorax and inflated through the trachea with neutral buffered formalin. Histologic sections were made by following standard procedures and stained with hematoxylin and eosin (H&E).
# (§4) Topical administration was accomplished by anesthetizing the animals, holding them in a vertical posture, and instilling a solution containing corticosteroid onto the nares. A total volume of 0.1 ml/100 gm body weight was used. […] However, for human administration it is desirable to use a small particle aerosol delivered by a device that could be triggered by inhalation or used synchronously with the inhalation phase of ventilation for patients on a ventilator. Such a device could deliver aerosol from powder (spinhaler) or liquid. Since many patients, especially young infants and debilitated adults, may have diminished respiratory inhalation vigor, it is important to synchronize aerosol generation with inhalation. This could be accomplished by having inhalation trigger the aerosol delivery to the airway (nasal prongs, oral tube, etc.). The trigger mechanism could include negative pressure from inhalation, chest movement, or electrical triggering synchronized with diaphragmatic contraction. Electrical leads used to monitor respirations could be used to synchronize aerosol generation to be triggered at the first initiation of diaphragmatic contraction and respiration. Any form of aerosol generator is suitable if aerosol delivery is synchronized with inhalation and appropriate particle size is consistently generated.
# (§5) Therapeutic efficacy is determined by comparing two parameters in treated versus control animals: (1) the percentage of alveoli on a single H&E-stained coronal section of lungs containing interstitial and/or intraalveolar pathology; and (2) the percentage of bronchioles, on the same section of lungs, affected by peribronchiolar lymphocytic infiltration.
# Triamcinolone acetonide was selected as the prototypical corticosteroid for the combined anti-infective and anti-inflammatory studies. […] Therefore, the use of triamcinolone acetonide is merely by example of a general property of corticosteroids. Cotton rats were infected (Day 0) by intranasal instillation of PIV3 (10^6 pfu/animal) or RSV (10^5 pfu/animal). Animals were anesthetized with methoxyflurane, and the inoculating virus was delivered in a volume of 0.1 ml/100 gm body weight of the animal. […]
# adenovirus type 5 (Ad-5) = test: Pulmonary pathology (histology) in Ad-5-infected cotton rats; type: in vivo
# Text: as §1, §2, §3, §4, §5
# [2] = test system: respiratory syncytial virus (RSV); type: in vivo; settings: for % Bronchioles: group mean, Table 8, triamcinolone acetonide 4 mg/kg, ribavirin 20 mg/kg, topical Days 3, 4, 5, Day 6; for effect on pulmonary pathology (in words): topical treatment Days 3, 4, 5
# Procedure: (§6) Triamcinolone acetonide was selected as the prototypical corticosteroid for the combined anti-infective and anti-inflammatory studies. […] Cotton rats were infected (Day 0) by intranasal instillation of PIV3 (10^6 pfu/animal) or RSV (10^5 pfu/animal). Animals were anesthetized with methoxyflurane, and the inoculating virus was delivered in a volume of 0.1 ml/100 gm body weight of the animal. On Day 3, animals were anesthetized with methoxyflurane, and treated by intranasal instillation of anti-infective agent or a combination of anti-infective agent and corticosteroid, in a volume of 0.1 ml/100 gm body weight. The same treatment was repeated once per day on Days 4 and 5. For purposes of comparison, control animals were infected concurrently on Day 0, but received no treatment on Days 3, 4, or 5. On Day 6, the time of maximum pulmonary pathology in infected, untreated animals, all animals were euthanized by carbon dioxide intoxication.
# (§7) Three experiments were performed using combined therapy: (1) anti-PIV3 antibody (100 mg/kg) and triamcinolone acetonide (4 mg/kg) were used to treat PIV3 infection; (2) anti-RSV antibody (25 mg/kg) and triamcinolone acetonide (4 mg/kg) were used to treat RSV infection; (3) ribavirin (20 mg/kg) and triamcinolone acetonide (4 mg/kg) were used to treat RSV infection. All agents were administered topically as described above in “Drug Testing”.
# Histopathology studies. After animals were sacrificed by carbon dioxide intoxication, the chest cavity was opened, and the heart and lungs removed intact. The trachea was cannulated with a blunt needle, the lungs inflated with 10% neutral buffered formalin to their normal volume, and the trachea tied with a suture. Coronal sections of the lungs were cut at a thickness of 4 microns, and stained with hematoxylin and eosin.
# Standard published pathologic criteria for the identification and scoring of bronchiolitis and interstitial pneumonia were used (Porter, 1991 J. Virol. 65:103-111). Briefly, bronchiolitis is the accumulation of inflammatory cells, mostly or exclusively lymphocytes, in and around bronchioles. There may be accompanying damage to the epithelial cells, including loss of cilia or cell death. Interstitial pneumonia is thickening of the alveolar walls, usually accompanied by infiltration of inflammatory cells into the alveolar septae. Bronchiolitis was quantitated by examining each bronchiole within the lung section (generally 40-70 bronchioles) and scoring for the presence or absence of lymphocytic infiltration. The percentage of affected bronchioles was then calculated. Interstitial pneumonia was quantitated by estimating the percentage of affected alveolar tissue in the lung section. A minimum of four animals were examined for each time point. Arithmetic means of pathology scores were calculated, and differences between treatment groups evaluated by the Student t-test of summary data. In each experiment, uninfected animals served as sentinels to rule out the presence of adventitious agents.
# [3] = test system: respiratory syncytial virus (RSV); type: in vivo; settings: topical treatment Days 3, 4, 5
# Procedure: as §6, §7
# (§8) Cotton rats were challenged to induce infection in the following manner. The frozen virus (usually at a concentration of 10^5 pfu/ml) was thawed and then immediately instilled (0.05 ml/nostril) into anesthetized cotton rats. […] Lungs were removed from the animal, homogenized in tissue culture fluid, and cultured on HEp2 monolayers. The amount of virus was then quantified.
# (§9) A single pool of purified human IgG, with known neutralizing antibody titer, was used with each virus throughout the experiments, to minimize experimental variability. […] Once determined, this dose was used in all subsequent experiments.
# (§10) Titrations of virus in pulmonary tissues. Animals were sacrificed by carbon dioxide intoxication. After the thoracic wall was removed aseptically, the lungs were dissected from the heart, and homogenized in a TenBroeck tissue grinder in 10 parts (v:w) of Hanks, balanced salt solution, modified for stabilizing virus by the addition of 0.218 M sucrose, 4.4 mM glutamate, 3.8 mM KH2PO4 and 7.2 mM K2HPO4. […] After four days incubation at 37° C. under methylcellulose overlay, the cells were stained with crystal violet in glutaraldehyde solution, and the plaques counted. Viral titers were expressed as a geometric mean, plus or minus the standard error, for all animals (a minimum of four) at a given time point. […]
# [4] = test system: parainfluenza virus type 3 (PIV3); type: in vivo; settings: topical treatment Days 3, 4, 5
# Procedure: as §6, §7, §8, §9, §10
# [5] = group mean, Experiment 5, dexamethasone acetate 8 mg/ml or triamcinolone acetonide 40 mg/ml intranasal Days 3-5, Day 6
# [6] = mean, Exps. 1, 2, 6 and 7 combined
# [7] = range over experiments, treated vs control
# [8] = individual animals (Exps. 3, 4)
# [9] = group mean, Table 6, triamcinolone acetonide 4 mg/kg, anti-PIV3 IgG 100 mg/kg, topical Days 3, 4, 5, Day 6
structure (smiles),measurement,setting,value
"CC(=O)OCC(=O)[C@@]1(O)[C@H](C)C[C@H]2[C@@H]3CCC4=CC(=O)C=C[C@]4(C)[C@@]3(F)[C@@H](O)C[C@@]21C [Dexamethasone, dexamethasone acetate]",reduction of alveolar inflammation compared to control values,[1]; Experiment 5,28%
same,reduction of bronchiolar inflammation compared to control values,[1]; Experiment 5,75%
same,% Alveoli,[1]; [5],50%
same,% Bronchioles,[1]; [5],21%
same,% Bronchioles,"[1]; individual animals, Experiment 5",29% and 21% and 14%
"CC(=O)OCC(=O)[C@@]1(O)CC[C@H]2[C@@H]3CCC4=CC(=O)CC[C@]4(C)[C@H]3[C@@H](O)C[C@@]21C [hydrocortisone acetate, Hydrocortisone acetate]",% Bronchioles,"[1]; group mean per experiment (Exps. 1, 2, 6, 7), hydrocortisone acetate 50 mg/ml, 0.1 ml/100 gm intranasal Days 3, 4, 5, histology Day 6",9% and 15%
same,% Alveoli,[1]; [6],24%
same,% Bronchioles,[1]; [6],15%
same,"net reduction in disease, alveolar inflammation",[1]; [7],27-56%
same,"net reduction in disease, bronchiolar inflammation",[1]; [7],77-85%
same,exacerbated disease in treated animals,[1]; topical hydrocortisone acetate,no evidence of exacerbated disease
same,% Alveoli,adenovirus type 5 (Ad-5); [8],10% (2×) and 5% and 9% and 50% and 40% (2×) and 20%
same,% Bronchioles,adenovirus type 5 (Ad-5); [8],18% and 16% and 21% and 8% and 26% and 37% and 42% and 50%
same,"net reduction in disease, alveolar inflammation",adenovirus type 5 (Ad-5); [7],46-79%
same,"net reduction in disease, bronchiolar inflammation",adenovirus type 5 (Ad-5); [7],57-77%
same,exacerbated disease in treated animals,adenovirus type 5 (Ad-5); topical hydrocortisone acetate,no evidence of exacerbated disease
"NC(=O)c1ncn([C@@H]2O[C@H](CO)[C@@H](O)[C@H]2O)n1 [Ribavirin, 1-beta-D-ribofuranosyl-1,2,4,-triazole-3-carboxamide]",% Bronchioles,[2],48 (N.S.) %
same,therapeutic effectiveness against RSV infection (in words),"[2]; ribavirin 20 mg/kg topical, cotton rat",minimally effective
same,effect on pulmonary pathology (in words),[2],nor affected pulmonary pathology
same,effect on pulmonary pathology (in words),[2]; listed as ribavirin,no effect on pulmonary pathology
same,effect on viral titers / viral shedding (in words),[3],neither effected a significant reduction in pulmonary RSV titers
same,effect on viral titers / viral shedding (in words),[3]; listed as ribavirin,did not reduce viral titers
"CC1(C)O[C@@H]2C[C@H]3[C@@H]4CCC5=CC(=O)C=C[C@]5(C)[C@@]4(F)[C@@H](O)C[C@]3(C)[C@]2(C(=O)CO)O1 [Triamcinolone, triamcinolone acetonide]",reduction of alveolar inflammation compared to control values,[1]; Experiment 5,80%
same,reduction of bronchiolar inflammation compared to control values,[1]; Experiment 5,89%
same,% Alveoli,[1]; [5],24% and 24 (p < 0.01) %
same,% Bronchioles,[1]; [5],9% and 9 (p < 0.001) %
same,% Alveoli,[1]; [9],10 (p < 0.05) % and 10%
same,% Bronchioles,[1]; [9],6 (p < 0.001) % and 6%
same,% Bronchioles,[2],0 (p < 0.001) %
same,effect on pulmonary pathology (in words),[2],dramatically reduced; also recorded: reduced pulmonary pathology
same,effect on viral titers / viral shedding (in words),[4],increased and prolonged viral shedding; also recorded: prolonged and increased viral shedding
same,effect on viral titers / viral shedding (in words),[3],prolonged and increased viral shedding
